Measurements taken from US20150217046A1, “DOSING REGIMENS FOR SUBCUTANEOUSLY INFUSIBLE ACIDIC COMPOSITIONS” (SynAgile Corporation, priority 2012, published 2015).

Legend:
[1] = Infusion site reactions, subcutaneous infusion of 50 mg/mL LDEE pH 3.7 (Example 6); details: for # of Infusion Site Reactions/# of Infusion Sites: pH 3.7, 50 mg/mL
Description: Over the course of two consecutive days, four 6-12 week old juvenile minipigs weighing about 6-13 kg were each administered 18 subcutaneous infusions of LDEE pharmaceutical compositions at pH 3.7 (LDEE.HCl, pH adjusted with trisodium citrate). […] Intermittent and continuously infused doses of 137.5-140 mg (0.61-0.62 millimoles) were administered over 8 hours, and intermittent doses of 275 mg (1.22 millimoles) were administered over 16 hours (calculated mass of LDEE in its freebase form).
Each infusion site was spaced a minimum of 2 inches (5 cm) apart from any other infusion site. All minipigs received seven doses of oral carbidopa, 25 mg/dose: one dose at 12 hours prior to the infusion on the first day; 3 doses on the first day of infusion; and 3 doses on the second day of infusion.

[2] = Infusion site reactions, intermittent subcutaneous infusion of 100 and 200 mg/mL LDEE pH 3.7 (Example 4); details: for infusion site reactions, doses pooled: 14 days post-infusion
Text: Each infusion site was spaced a minimum of 2 inches (5 cm) apart from any other infusion site.

CCOC(=O)[C@@H](N)Cc1ccc(O)c(O)c1 [LDEE, levodopa ethyl ester]
tolerability of infused volume per site ([1]; 50 mg/mL LDEE pH 3.7, about 0.34 mL per hour per site): well tolerated | # of Infusion Site Reactions/# of Infusion Sites ([1]; 137.5 mg, 8 hrs, Intermittent s.c., 0 hrs): 0/8 | # of Infusion Site Reactions/# of Infusion Sites ([1]; 137.5 mg, 8 hrs, Intermittent s.c., 12 hrs): 0/8 | # of Infusion Site Reactions/# of Infusion Sites ([1]; 137.5 mg, 8 hrs, Intermittent s.c., 24 hrs): 0/8 | # of Infusion Site Reactions/# of Infusion Sites ([1]; 137.5 mg, 8 hrs, Intermittent s.c., 3 days): 3/8 | # of Infusion Site Reactions/# of Infusion Sites ([1]; 140 mg, 8 hrs, Continuous s.c., 0 hrs): 0/4 | # of Infusion Site Reactions/# of Infusion Sites ([1]; 140 mg, 8 hrs, Continuous s.c., 12 hrs): 0/4 | # of Infusion Site Reactions/# of Infusion Sites ([1]; 140 mg, 8 hrs, Continuous s.c., 24 hrs): 0/4 | # of Infusion Site Reactions/# of Infusion Sites ([1]; 140 mg, 8 hrs, Continuous s.c., 3 days): 0/4 | # of Infusion Site Reactions/# of Infusion Sites ([1]; 275 mg, 16 hrs, Intermittent s.c., 0 hrs): 0/6 | # of Infusion Site Reactions/# of Infusion Sites ([1]; 275 mg, 16 hrs, Intermittent s.c., 12 hrs): 0/6 | # of Infusion Site Reactions/# of Infusion Sites ([1]; 275 mg, 16 hrs, Intermittent s.c., 24 hrs): 1/6 | # of Infusion Site Reactions/# of Infusion Sites ([1]; 275 mg, 16 hrs, Intermittent s.c., 3 days): 1/6 | infusion site reactions, doses pooled ([2]; 100 mg/mL LDEE pH 3.7): 0 out of 16 | infusion site reactions, doses pooled ([2]; 200 mg/mL LDEE pH 3.7): 5 out of 16 | tolerability of infused volume per site ([2]; LDEE pH 3.7, volumes between 0.094 and 0.37 mL per hour per site): well tolerated | # of Infusion Site Reactions/# of Infusion Sites ([2]; pH 3.7, intermittent s.c. (35 min non-delivery), 100 mg/mL, 563 mg, 16 hrs, 0 hrs): 0/4 | # of Infusion Site Reactions/# of Infusion Sites ([2]; pH 3.7, intermittent s.c. (35 min non-delivery), 100 mg/mL, 563 mg, 16 hrs, 12 hrs): 0/4 | # of Infusion Site Reactions/# of Infusion Sites ([2]; pH 3.7, intermittent s.c. (35 min non-delivery), 100 mg/mL, 563 mg, 16 hrs, 24 hrs): 2/4 | # of Infusion Site Reactions/# of Infusion Sites ([2]; pH 3.7, intermittent s.c. (35 min non-delivery), 100 mg/mL, 563 mg, 16 hrs, 3 days): 3/4 | # of Infusion Site Reactions/# of Infusion Sites ([2]; pH 3.7, intermittent s.c. (35 min non-delivery), 100 mg/mL, 563 mg, 16 hrs, 7 days): 3/4 | # of Infusion Site Reactions/# of Infusion Sites ([2]; pH 3.7, intermittent s.c. (35 min non-delivery), 100 mg/mL, 563 mg, 16 hrs, 14 days): 0/4 | # of Infusion Site Reactions/# of Infusion Sites ([2]; pH 3.7, intermittent s.c., 100 mg/mL, 140 mg, 8 hrs, 0 hrs): 0/8 | # of Infusion Site Reactions/# of Infusion Sites ([2]; pH 3.7, intermittent s.c., 100 mg/mL, 140 mg, 8 hrs, 12 hrs): 0/8 | # of Infusion Site Reactions/# of Infusion Sites ([2]; pH 3.7, intermittent s.c., 100 mg/mL, 140 mg, 8 hrs, 24 hrs): 0/8 | # of Infusion Site Reactions/# of Infusion Sites ([2]; pH 3.7, intermittent s.c., 100 mg/mL, 140 mg, 8 hrs, 3 days): 3/8 | # of Infusion Site Reactions/# of Infusion Sites ([2]; pH 3.7, intermittent s.c., 100 mg/mL, 140 mg, 8 hrs, 7 days): 1/8 | # of Infusion Site Reactions/# of Infusion Sites ([2]; pH 3.7, intermittent s.c., 100 mg/mL, 140 mg, 8 hrs, 14 days): 0/8 | # of Infusion Site Reactions/# of Infusion Sites ([2]; pH 3.7, intermittent s.c., 100 mg/mL, 282 mg, 16 hrs, 0 hrs): 0/4 | # of Infusion Site Reactions/# of Infusion Sites ([2]; pH 3.7, intermittent s.c., 100 mg/mL, 282 mg, 16 hrs, 12 hrs): 0/4 | # of Infusion Site Reactions/# of Infusion Sites ([2]; pH 3.7, intermittent s.c., 100 mg/mL, 282 mg, 16 hrs, 24 hrs): 1/4 | # of Infusion Site Reactions/# of Infusion Sites ([2]; pH 3.7, intermittent s.c., 100 mg/mL, 282 mg, 16 hrs, 3 days): 1/4 | # of Infusion Site Reactions/# of Infusion Sites ([2]; pH 3.7, intermittent s.c., 100 mg/mL, 282 mg, 16 hrs, 7 days): 0/4 | # of Infusion Site Reactions/# of Infusion Sites ([2]; pH 3.7, intermittent s.c., 100 mg/mL, 282 mg, 16 hrs, 14 days): 0/4 | # of Infusion Site Reactions/# of Infusion Sites ([2]; pH 3.7, intermittent s.c., 200 mg/mL, 140 mg, 8 hrs, 0 hrs): 0/8 | # of Infusion Site Reactions/# of Infusion Sites ([2]; pH 3.7, intermittent s.c., 200 mg/mL, 140 mg, 8 hrs, 12 hrs): 0/8 | # of Infusion Site Reactions/# of Infusion Sites ([2]; pH 3.7, intermittent s.c., 200 mg/mL, 140 mg, 8 hrs, 24 hrs): 0/8 | # of Infusion Site Reactions/# of Infusion Sites ([2]; pH 3.7, intermittent s.c., 200 mg/mL, 140 mg, 8 hrs, 3 days): 3/8 | # of Infusion Site Reactions/# of Infusion Sites ([2]; pH 3.7, intermittent s.c., 200 mg/mL, 140 mg, 8 hrs, 7 days): 3/8 | # of Infusion Site Reactions/# of Infusion Sites ([2]; pH 3.7, intermittent s.c., 200 mg/mL, 140 mg, 8 hrs, 14 days): 2/8 | # of Infusion Site Reactions/# of Infusion Sites ([2]; pH 3.7, intermittent s.c., 200 mg/mL, 282 mg, 16 hrs, 0 hrs): 0/4 | # of Infusion Site Reactions/# of Infusion Sites ([2]; pH 3.7, intermittent s.c., 200 mg/mL, 282 mg, 16 hrs, 12 hrs): 0/4 | # of Infusion Site Reactions/# of Infusion Sites ([2]; pH 3.7, intermittent s.c., 200 mg/mL, 282 mg, 16 hrs, 24 hrs): 0/4 | # of Infusion Site Reactions/# of Infusion Sites ([2]; pH 3.7, intermittent s.c., 200 mg/mL, 282 mg, 16 hrs, 3 days): 2/4 | # of Infusion Site Reactions/# of Infusion Sites ([2]; pH 3.7, intermittent s.c., 200 mg/mL, 282 mg, 16 hrs, 7 days): 2/4 | # of Infusion Site Reactions/# of Infusion Sites ([2]; pH 3.7, intermittent s.c., 200 mg/mL, 282 mg, 16 hrs, 14 days): 1/4 | # of Infusion Site Reactions/# of Infusion Sites ([2]; pH 3.7, intermittent s.c., 200 mg/mL, 563 mg, 16 hrs, 0 hrs): 0/4 | # of Infusion Site Reactions/# of Infusion Sites ([2]; pH 3.7, intermittent s.c., 200 mg/mL, 563 mg, 16 hrs, 12 hrs): 0/4 | # of Infusion Site Reactions/# of Infusion Sites ([2]; pH 3.7, intermittent s.c., 200 mg/mL, 563 mg, 16 hrs, 24 hrs): 0/4 | # of Infusion Site Reactions/# of Infusion Sites ([2]; pH 3.7, intermittent s.c., 200 mg/mL, 563 mg, 16 hrs, 3 days): 3/4 | # of Infusion Site Reactions/# of Infusion Sites ([2]; pH 3.7, intermittent s.c., 200 mg/mL, 563 mg, 16 hrs, 7 days): 3/4 | # of Infusion Site Reactions/# of Infusion Sites ([2]; pH 3.7, intermittent s.c., 200 mg/mL, 563 mg, 16 hrs, 14 days): 2/4
